The numbers were not newly measured in patent US20050271673A1, “Trifunctional reagent for conjugation to a biomolecule” (priority 1998, published 2005), which cites them from elsewhere.

Data set [1] deals with streptavidin (Streptomyces avidinii, UniProt P22629). Conditions: association constant; Green 1990, 1975.
The target in data set [2] is avidin (Gallus gallus, UniProt P02701). Particulars: association constant; Green 1990, 1975.
avidin, sequence (P02701 25-152, species assumed): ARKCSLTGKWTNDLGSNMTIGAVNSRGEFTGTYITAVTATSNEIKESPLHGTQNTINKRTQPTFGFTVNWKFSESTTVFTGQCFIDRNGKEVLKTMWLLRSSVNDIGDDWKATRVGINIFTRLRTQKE

streptavidin, sequence (P22629 25-183, species assumed): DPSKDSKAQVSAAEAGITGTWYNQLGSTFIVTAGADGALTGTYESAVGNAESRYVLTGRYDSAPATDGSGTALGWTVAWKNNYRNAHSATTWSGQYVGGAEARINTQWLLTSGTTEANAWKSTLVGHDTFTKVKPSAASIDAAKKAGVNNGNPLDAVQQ

Take `O=C(O)CCCC[C@@H]1SC[C@@H]2NC(=O)N[C@@H]21` [biotin]: the “K (binding constant of biotin with streptavidin)” value in data set [1] was 1013 to 1015 M⁻¹. The “K (binding constant of biotin with avidin)” value in data set [2] is 1013 to 1015 M⁻¹.
